From patent US20260248918A1, “COMPOSITIONS AND METHODS OF SUPPRESSING AVERSIVENESS OF PHARMACEUTICALS AND INGESTIBLE MATERIALS” (Monell Chemical Senses Center, priority 2019, published 2026)
Entries after “also recorded” stand apart in the source; their conditions may differ. Like-named read-outs stand apart in the source and are kept apart here.

What was measured:
[1] = test system: androgen receptor; settings: human MDA-kb2 cells; cited from earlier work
[2] = target: T1, TAS2R1 (Homo sapiens, UniProt Q9NYW7); assay: Blocking of TAS2R1 response to the APIs; format: cell-based; settings: data not shown
T1 sequence (Q9NYW7 1-299): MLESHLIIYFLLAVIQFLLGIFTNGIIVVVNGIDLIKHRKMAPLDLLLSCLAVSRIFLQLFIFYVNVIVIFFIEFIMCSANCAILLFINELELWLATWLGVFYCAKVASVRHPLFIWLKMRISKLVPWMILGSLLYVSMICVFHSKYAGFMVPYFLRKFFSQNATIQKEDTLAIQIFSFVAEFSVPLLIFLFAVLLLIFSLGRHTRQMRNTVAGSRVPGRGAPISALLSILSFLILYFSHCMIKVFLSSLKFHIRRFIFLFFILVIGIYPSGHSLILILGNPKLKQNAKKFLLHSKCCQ

[3] = target: T2, TAS2R39 (Homo sapiens, UniProt P59534); assay: Blocking of TAS2R39 activity (HEK/TAS2R39) stimulated by Piperaquine or Tenofovir; format: cell-based; set-up: expressed in transfected cells; host or cells: HEK; settings: 0.1 mM blocker
T2 sequence (P59534 1-338): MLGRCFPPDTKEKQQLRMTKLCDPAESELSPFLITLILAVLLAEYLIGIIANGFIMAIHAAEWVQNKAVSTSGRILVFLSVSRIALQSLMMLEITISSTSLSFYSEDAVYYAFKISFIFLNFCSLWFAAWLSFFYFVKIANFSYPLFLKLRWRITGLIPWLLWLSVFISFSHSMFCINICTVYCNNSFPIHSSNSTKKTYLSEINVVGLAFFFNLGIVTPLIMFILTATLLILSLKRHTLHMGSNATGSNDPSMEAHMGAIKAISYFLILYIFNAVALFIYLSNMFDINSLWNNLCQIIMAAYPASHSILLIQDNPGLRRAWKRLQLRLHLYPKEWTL
Experimental: FIG. 5A is a bar graph showing that the blocker 6-methylflavone (indicated by the arrow number 2) blocks the activity of taste receptor TAS2R39 to Piperaquine. Other blockers are unidentified compounds identified by the numbers following the concentrations under the X axis. Five candidates from the HTS screen blocked the activity of TAS2R39 to Piperaquine.
FIG. 5B is a graph plotting the activity of taste receptor HEK/TAS2R39 in the presence of 0.5 mM Piperaquine (bold black line); the combination of 0.5 mM Piperaquine and 0.1 mM of 6-methylflavone (light gray line), and a control with 0.1 mM of the blocker 6-methylflavone (dotted line).
Other blockers are identified by the numbers following the concentrations under the X axis.
FIG. 7B is a graph plotting the activity of taste receptor TAS2R39 in the presence of 1 mM Tenofovir (bold black line); the combination of 1 mM Tenovir and 0.1 mM of 6-methylflavone (light gray line), and a control with 0.1 mM of the blocker 6-methylflavone (dotted line).

[4] = test system: Benzodiazepine receptor (gamma-aminobutyric acid receptor subunit); settings: rat cortical membranes; cited from earlier work
[5] = test system: Gamma-aminobutyric acid A receptor alpha; settings: in vitro; cited from earlier work
[6] = target: T3, glucocorticoid receptor (Homo sapiens, UniProt P04150); settings: human MDA-kb2 cells; cited from earlier work
T3 construct: glucocorticoid receptor in human MDA-kb2 cells; endogenous in cells; host or cells: MDA-kb2
T3 sequence (P04150 1-777): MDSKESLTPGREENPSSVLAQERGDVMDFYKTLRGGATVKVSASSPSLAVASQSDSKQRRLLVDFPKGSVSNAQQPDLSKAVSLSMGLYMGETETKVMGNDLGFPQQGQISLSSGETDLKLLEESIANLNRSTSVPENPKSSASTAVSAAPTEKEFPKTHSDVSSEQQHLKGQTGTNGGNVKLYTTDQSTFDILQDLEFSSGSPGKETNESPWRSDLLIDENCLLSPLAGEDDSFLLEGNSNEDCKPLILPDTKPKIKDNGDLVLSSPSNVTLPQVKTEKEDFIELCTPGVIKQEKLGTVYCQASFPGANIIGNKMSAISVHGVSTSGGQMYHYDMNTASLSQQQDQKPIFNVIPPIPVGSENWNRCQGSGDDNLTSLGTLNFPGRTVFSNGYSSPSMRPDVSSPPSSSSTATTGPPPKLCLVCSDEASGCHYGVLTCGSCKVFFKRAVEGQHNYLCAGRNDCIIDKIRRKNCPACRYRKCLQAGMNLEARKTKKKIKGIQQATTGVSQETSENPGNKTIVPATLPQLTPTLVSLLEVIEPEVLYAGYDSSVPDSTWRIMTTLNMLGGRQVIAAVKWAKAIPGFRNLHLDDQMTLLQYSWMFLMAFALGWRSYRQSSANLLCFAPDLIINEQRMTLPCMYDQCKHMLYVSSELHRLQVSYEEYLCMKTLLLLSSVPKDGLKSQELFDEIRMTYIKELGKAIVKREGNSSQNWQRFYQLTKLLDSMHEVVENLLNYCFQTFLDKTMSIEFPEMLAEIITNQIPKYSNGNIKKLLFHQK

[7] = test system: hTBEC cells; assay: hTBEC bioassay: antagonism of bitter-drug stimulation of human taste bud cells; format: cell-based; settings: for IC50: Homo sapiens; for % maximum inhibition: at 50 μM antagonist
Experimental: FIGS. 12A and 12B show concentration-response curves or relationships (CRCs) for antagonism of TAF or piperaquine stimulation of hTBEC cells with an optimal concentration of each bitter-tasting medicine in vitro. Each inhibition curve was fitted to the data so as to calculate an IC50 or the concentration that inhibits 50% of the signal. A Hill slope was calculated, along with the % maximal inhibition and the concentration of antagonist, 6-methylflavone, (indicated by the ref ST069348) required to fully block the response in the assay. These metrics were slightly different for antagonism by 6 -methylflavone of TAF versus piperaquine. FIG. 12A is a graph showing the suppression of human taste bud cells (hTBEC) cells with 6-methylflavone added to 300 micromolar TAF stimulated cells. […] FIG. 12B is a graph showing the suppression of hTBEC cells with 6-methylflavone added to 100 micromolar Piperaquine stimulated cells. IC50 is 2.0 μM for 6-methylflavone antagonism of Piperaquine stimulation.
Using a primary hTBEC platform, a high throughput screening (HTS) was conducted with more than 2,000 small molecular weight purified phytochemicals and botanical extracts. The screen identified 40 antagonists that suppressed taste cell activation by target APIs. […] TAS2R1 is responsive to piperaquine and tenofovir. (See FIG. 4)

Structure (SMILES): Cc1ccc2oc(-c3ccccc3)cc(=O)c2c1 [6-methylflavone]
- Agonist activity at androgen receptor, stimulation of luciferase activity [1]: agonist activity
- Inhibition of TAS2R1 ([2]; FIG. 5A legend (Piperaquine)): did not inhibit
- Inhibition of the response of TAS2R1 to TAF ([2]; FIG. 7B legend): did not inhibit
- Inhibition of TAS2R39 activity to Piperaquine ([3]; 0.5 mM Piperaquine, FIG. 5A/5B): powerful antagonist; also recorded: strong inhibition
- Inhibition of TAS2R39 activity in response to Tenofovir (TAF) ([3]; 1 mM Tenofovir, FIG. 7A/7B): powerful antagonist; also recorded: completely inhibited
- In vitro affinity against Benzodiazepine receptor binding [4]: active
- Inhibition of [3H]-Ro-15-1788 binding [5]: has the ability to inhibit
- Antagonist activity at glucocorticoid receptor [6]: antagonist activity
- IC50 ([7]; hTBEC cells stimulated with 100 micromolar Piperaquine, FIG. 12B, read-out: IC50 for antagonism of Piperaquine stimulation): 2 µM
- IC50 ([7]; hTBEC cells stimulated with 300 micromolar TAF, FIG. 12A, read-out: IC50 for antagonism of TAF stimulation): 7.7 µM
- % maximum inhibition ([7]; 100 micromolar Piperaquine stimulated hTBEC cells, FIG. 12B): > 95%
- % maximum inhibition ([7]; 300 micromolar TAF stimulated hTBEC cells, FIG. 12A): > 95%
- Hill slope ([7]; hTBEC cells stimulated with 100 micromolar Piperaquine, FIG. 12B): 1.992
- Hill slope ([7]; hTBEC cells stimulated with 300 micromolar TAF, FIG. 12A): 2.18
- Blocking the stimulation of hTBEC cells by bitter tasting drugs ([7]; stimulated by TAF, racemic praziquantel and piperaquine): quite potent and effective
